What was measured:
Assay in all cases: cells
Details in all cases: Homo sapiens
MHH-PREB-1 = assay type: functional, cell-based;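 also: cell viability assay measuring inhibition of proliferation of human MHH-PREB-1 cells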
Description: SANGER: Inhibition of human MHH-PREB-1 cell growth in a cell viability assay.

HCC2218 = assay type: functional, cell-based;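 also: cell viability assay read-out, with IC50 given as the concentration that inhibits growth of the cell line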
Description: SANGER: Inhibition of human HCC2218 cell growth in a cell viability assay.

D-502MG = assay type: functional, cell-based
Description: SANGER: Inhibition of human D-502MG cell growth in a cell viability assay.

SK-MEL-2 = assay type: functional, cell-based;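 also: growth inhibition of human SK-MEL-2 cells measured with a cell viability assay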
Description: SANGER: Inhibition of human SK-MEL-2 cell growth in a cell viability assay.

HDLM-2 = assay type: functional, cell-based;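 also: cell viability assay measuring suppression of HDLM-2 proliferation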
Description: SANGER: Inhibition of human HDLM-2 cell growth in a cell viability assay.

RXF 393 = assay type: functional, cell-based;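 also: growth inhibition of human RXF 393 cells, read out with a cell viability assay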
Description: SANGER: Inhibition of human RXF393 cell growth in a cell viability assay.

NB13 = assay type: functional, cell-based;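 also: cell viability readout measuring growth inhibition of human NB13 cells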
Description: SANGER: Inhibition of human NB13 cell growth in a cell viability assay.

NB5 = assay type: functional, cell-based;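 also: growth inhibition of NB5 cells, read out as cell viability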
Description: SANGER: Inhibition of human NB5 cell growth in a cell viability assay.

Calu-6 = assay type: functional, cell-based;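 also: growth of human Calu-6 cells, read out by a cell viability assay, IC50 marking inhibition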
Description: SANGER: Inhibition of human Calu-6 cell growth in a cell viability assay.

NCI-H2126 = assay type: functional, cell-based;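 also: growth inhibition of the cancer cell line, determined with a cell viability readout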
Description: SANGER: Inhibition of human NCI-H2126 cell growth in a cell viability assay.

A3-KAW = assay type: functional, cell-based;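 also: growth inhibition of human A3-KAW cells, read out with a cell viability assay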
Description: SANGER: Inhibition of human A3-KAW cell growth in a cell viability assay.

MV4-11 = assay type: functional, cell-based, MV-4-11;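 also: cell viability readout measuring growth inhibition of human MV-4-11 cells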
Description: SANGER: Inhibition of human MV-4-11 cell growth in a cell viability assay.

MZ7-mel = assay type: functional, cell-based;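 also: growth inhibition of human MZ7-mel cells, measured by a cell viability assay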
Description: SANGER: Inhibition of human MZ7-mel cell growth in a cell viability assay.

NCI-H747 = assay type: functional, cell-based;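 also: growth inhibition of human NCI-H747 cells, read out by a cell viability assay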
Description: SANGER: Inhibition of human NCI-H747 cell growth in a cell viability assay.

HCC1187 = assay type: functional, cell-based;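 also: growth inhibition of HCC1187 cells, read out with a cell viability assay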
Description: SANGER: Inhibition of human HCC1187 cell growth in a cell viability assay.

EW-24 = assay type: functional, cell-based;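 also: human EW-24 cancer cell line, growth inhibition read out via a cell viability assay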
Description: SANGER: Inhibition of human EW-24 cell growth in a cell viability assay.

IA-LM = assay type: functional, cell-based;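 also: cell viability assay measuring growth inhibition of human IA-LM cells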
Description: SANGER: Inhibition of human IA-LM cell growth in a cell viability assay.

Becker = assay type: functional, cell-based;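 also: growth inhibition of Becker cells, read out with a cell viability assay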
Description: SANGER: Inhibition of human Becker cell growth in a cell viability assay.

MC116 = assay type: functional, cell-based;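 also: growth inhibition of MC116 cells, read out with a cell viability assay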
Description: SANGER: Inhibition of human MC116 cell growth in a cell viability assay.

MS-1 = assay type: functional, cell-based
Description: SANGER: Inhibition of human MS-1 cell growth in a cell viability assay.

TE-12 = assay type: functional, cell-based;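 also: growth inhibition of TE-12 cells, read out by a cell viability assay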
Description: SANGER: Inhibition of human TE-12 cell growth in a cell viability assay.

IST-MEL1 = assay type: functional, cell-based;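 also: growth inhibition of the cell line, read out with a cell viability assay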
Description: SANGER: Inhibition of human IST-MEL1 cell growth in a cell viability assay.

A704 = assay type: functional, cell-based;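 also: growth inhibition of human A704 cells, read out with a cell viability assay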
Description: SANGER: Inhibition of human A704 cell growth in a cell viability assay.

DMS-114 = assay type: functional, cell-based
KP-N-YS = assay type: functional, cell-based;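 also: cell viability assay measuring inhibition of cell line growth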
Description: SANGER: Inhibition of human KP-N-YS cell growth in a cell viability assay.

JVM-3 = assay type: functional, cell-based;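 also: growth inhibition of human JVM-3 cells, read out with a cell viability assay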
Description: SANGER: Inhibition of human JVM-3 cell growth in a cell viability assay.

TE-11 = assay type: functional, cell-based;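 also: growth inhibition of human TE-11 cells, read out by a cell viability assay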
Description: SANGER: Inhibition of human TE-11 cell growth in a cell viability assay.

MLMA = assay type: functional, cell-based;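 also: growth inhibition of MLMA cells (human), determined through a cell viability readout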
Description: SANGER: Inhibition of human MLMA cell growth in a cell viability assay.

LU-139 = assay type: functional, cell-based
Description: SANGER: Inhibition of human LU-139 cell growth in a cell viability assay.

ES6 = assay type: functional, cell-based;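 also: growth inhibition of human ES6 cells, read out with a cell viability assay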
Description: SANGER: Inhibition of human ES6 cell growth in a cell viability assay.

PSN1 = assay type: functional, cell-based;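 also: suppression of growth of human PSN1 cells, read out by a cell viability assay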
Description: SANGER: Inhibition of human PSN1 cell growth in a cell viability assay.

A388 = assay type: functional, cell-based;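 also: growth inhibition of human A388 cells, read out with a cell viability assay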
Description: SANGER: Inhibition of human A388 cell growth in a cell viability assay.

DEL = assay type: functional, cell-based;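 also: growth inhibition of the human DEL cell line, read out with a cell viability assay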
Description: SANGER: Inhibition of human DEL cell growth in a cell viability assay.

HC-1 = assay type: functional, cell-based;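 also: growth inhibition of HC-1 cells measured by a cell viability assay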
Description: SANGER: Inhibition of human HC-1 cell growth in a cell viability assay.

ES8 = assay type: functional, cell-based;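 also: growth inhibition of human ES8 cells, read out with a cell viability assay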
Description: SANGER: Inhibition of human ES8 cell growth in a cell viability assay.

NCI-H1770 = assay type: functional, cell-based;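 also: growth inhibition of NCI-H1770 cells determined with a viability readout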
Description: SANGER: Inhibition of human NCI-H1770 cell growth in a cell viability assay.

ES7 = assay type: functional, cell-based;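 also: growth inhibition of cultured human ES7 cells, read out as cell viability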
Description: SANGER: Inhibition of human ES7 cell growth in a cell viability assay.

ES3 = assay type: functional, cell-based;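 also: growth inhibition of ES3 cells, read out with a cell viability assay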
Description: SANGER: Inhibition of human ES3 cell growth in a cell viability assay.

SF-126 = assay type: functional, cell-based;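 also: growth inhibition of human SF126 cells, read out with a cell viability assay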
Description: SANGER: Inhibition of human SF126 cell growth in a cell viability assay.

GCIY = assay type: functional, cell-based;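 also: growth inhibition of the human GCIY cell line, read out by a cell viability assay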
Description: SANGER: Inhibition of human GCIY cell growth in a cell viability assay.

LAMA-84 = assay type: functional, cell-based;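 also: growth inhibition of LAMA-84 cells, read out with a cell viability assay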
Description: SANGER: Inhibition of human LAMA-84 cell growth in a cell viability assay.

ES4 = assay type: functional, cell-based;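 also: growth inhibition of human ES4 cells, read out by a cell viability assay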
Description: SANGER: Inhibition of human ES4 cell growth in a cell viability assay.

MZ1-PC = assay type: functional, cell-based;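 also: cell viability assay measuring growth inhibition of human MZ1-PC cells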
Description: SANGER: Inhibition of human MZ1-PC cell growth in a cell viability assay.

HEL = assay type: functional, cell-based;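 also: growth inhibition of HEL cells, read out with a cell viability assay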
Description: SANGER: Inhibition of human HEL cell growth in a cell viability assay.

NCI-H720 = assay type: functional, cell-based;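 also: growth inhibition of human NCI-H720 cells determined by a cell viability assay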
Description: SANGER: Inhibition of human NCI-H720 cell growth in a cell viability assay.

DJM-1 = assay type: functional, cell-based;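 also: growth inhibition of human DJM-1 cells, read out by a cell viability assay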
Description: SANGER: Inhibition of human DJM-1 cell growth in a cell viability assay.

KGN = assay type: functional, cell-based;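 also: growth inhibition of KGN cells, read out with a cell viability assay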
Description: SANGER: Inhibition of human KGN cell growth in a cell viability assay.

no-10 = assay type: functional, cell-based;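 also: growth inhibition of no-10 cells, read out with a cell viability assay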
Description: SANGER: Inhibition of human no-10 cell growth in a cell viability assay.

NCI-H82 = assay type: functional, cell-based;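 also: growth inhibition of NCI-H82 cells, measured with a cell viability readout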
Description: SANGER: Inhibition of human NCI-H82 cell growth in a cell viability assay.

NCI-H1299 = assay type: functional, cell-based;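 also: growth inhibition of human NCI-H1299 cells, read out by a cell viability assay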
Description: SANGER: Inhibition of human NCI-H1299 cell growth in a cell viability assay.

NCI-H23 = assay type: functional, cell-based;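 also: cell viability assay measuring growth inhibition of NCI-H23 cells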
Description: SANGER: Inhibition of human NCI-H23 cell growth in a cell viability assay.

BB65-RCC = assay type: functional, cell-based;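 also: growth inhibition of the cell line, measured with a cell viability assay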
Description: SANGER: Inhibition of human BB65-RCC cell growth in a cell viability assay.

TK-10 = assay type: functional, cell-based;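 also: growth inhibition of TK-10 cells, read out in a cell viability assay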
Description: SANGER: Inhibition of human TK10 cell growth in a cell viability assay.

NCI-H446 = assay type: functional, cell-based
Description: SANGER: Inhibition of human NCI-H446 cell growth in a cell viability assay.

GT3TKB = assay type: functional, cell-based
Description: SANGER: Inhibition of human GT3TKB cell growth in a cell viability assay.

SNU1 = assay type: functional, cell-based
Description: SANGER: Inhibition of human NCI-SNU-1 cell growth in a cell viability assay.

NB69 = assay type: functional, cell-based
Description: SANGER: Inhibition of human NB69 cell growth in a cell viability assay.

EM-2 = assay type: functional, cell-based
Description: SANGER: Inhibition of human EM-2 cell growth in a cell viability assay.

RCC10RGB = assay type: functional, cell-based
Description: SANGER: Inhibition of human RCC10RGB cell growth in a cell viability assay.

L-363 = assay type: functional, cell-based
Description: SANGER: Inhibition of human L-363 cell growth in a cell viability assay.

HOP-62 = assay type: functional, cell-based
Description: SANGER: Inhibition of human HOP-62 cell growth in a cell viability assay.

SBC-1 = assay type: functional, cell-based
Description: SANGER: Inhibition of human SBC-1 cell growth in a cell viability assay.

SK-N-DZ = assay type: functional, cell-based
Description: SANGER: Inhibition of human SK-N-DZ cell growth in a cell viability assay.

C8166 = assay type: functional, cell-based
Description: SANGER: Inhibition of human C8166 cell growth in a cell viability assay.

NOS-1 = assay type: functional, cell-based
Description: SANGER: Inhibition of human NOS-1 cell growth in a cell viability assay.

RPMI-8866 = assay type: functional, cell-based
Description: SANGER: Inhibition of human RPMI-8866 cell growth in a cell viability assay.

`Cc1[nH]c(/C=C2\C(=O)Nc3ccc(S(=O)(=O)Cc4c(Cl)cccc4Cl)cc32)c(C)c1C(=O)N1CCC[C@@H]1CN1CCCC1` [PHA-665752] was tested. Which IC50 (MHH-PREB-1) did it give?
The IC50 was > 2000 nM.

And the IC50 (HCC2218)?
The IC50 was > 2000 nM.

And the IC50 (D-502MG)?
Its IC50 is > 2000 nM.

What about the IC50 (SK-MEL-2) of the same compound?
Its IC50 is > 2000 nM.

What about the IC50 (HDLM-2) of the same compound?
The IC50 was > 2000 nM.

And the IC50 (RXF 393)?
Its IC50 is > 2000 nM.

What about the IC50 (NB13) of the same compound?
The IC50 was > 2000 nM.

And the IC50 (NB5)?
The IC50 was > 2000 nM.

And the IC50 (Calu-6)?
Its IC50 is > 2000 nM.

And the IC50 (NCI-H2126)?
Its IC50 is > 2000 nM.

And the IC50 (A3-KAW)?
Its IC50 is > 2000 nM.

What about the IC50 (MV4-11) of the same compound?
Its IC50 is 1290 nM.

What about the IC50 (MZ7-mel) of the same compound?
Its IC50 is > 2000 nM.

And the IC50 (NCI-H747)?
Its IC50 is > 2000 nM.

What about the IC50 (HCC1187) of the same compound?
The IC50 was > 2000 nM.

What about the IC50 (EW-24) of the same compound?
The IC50 was > 2000 nM.

And the IC50 (IA-LM)?
The IC50 was > 2000 nM.

What about the IC50 (Becker) of the same compound?
Its IC50 is > 2000 nM.

What about the IC50 (MC116) of the same compound?
The IC50 was > 2000 nM.

What about the IC50 (MS-1) of the same compound?
Its IC50 is > 2000 nM.

And the IC50 (TE-12)?
The IC50 was > 2000 nM.

What about the IC50 (IST-MEL1) of the same compound?
The IC50 was > 2000 nM.

What about the IC50 (A704) of the same compound?
Its IC50 is > 2000 nM.

And the IC50 (DMS-114)?
Its IC50 is > 2000 nM.

And the IC50 (KP-N-YS)?
Its IC50 is > 2000 nM.

What about the IC50 (JVM-3) of the same compound?
The IC50 was > 2000 nM.

What about the IC50 (TE-11) of the same compound?
Its IC50 is > 2000 nM.

And the IC50 (MLMA)?
Its IC50 is > 2000 nM.

And the IC50 (LU-139)?
Its IC50 is > 2000 nM.

And the IC50 (ES6)?
Its IC50 is > 2000 nM.

And the IC50 (PSN1)?
The IC50 was > 2000 nM.

And the IC50 (A388)?
Its IC50 is > 2000 nM.

And the IC50 (DEL)?
Its IC50 is > 2000 nM.

What about the IC50 (HC-1) of the same compound?
The IC50 was > 2000 nM.

And the IC50 (ES8)?
Its IC50 is > 2000 nM.

And the IC50 (NCI-H1770)?
Its IC50 is > 2000 nM.

And the IC50 (ES7)?
Its IC50 is > 2000 nM.

What about the IC50 (ES3) of the same compound?
Its IC50 is > 2000 nM.

What about the IC50 (SF-126) of the same compound?
Its IC50 is > 2000 nM.

What about the IC50 (GCIY) of the same compound?
Its IC50 is > 2000 nM.

What about the IC50 (LAMA-84) of the same compound?
Its IC50 is > 2000 nM.

What about the IC50 (ES4) of the same compound?
The IC50 was > 2000 nM.

And the IC50 (MZ1-PC)?
Its IC50 is > 2000 nM.

And the IC50 (HEL)?
Its IC50 is > 2000 nM.

And the IC50 (NCI-H720)?
Its IC50 is > 2000 nM.

And the IC50 (DJM-1)?
The IC50 was > 2000 nM.

What about the IC50 (KGN) of the same compound?
Its IC50 is > 2000 nM.

And the IC50 (no-10)?
The IC50 was > 2000 nM.

What about the IC50 (NCI-H82) of the same compound?
Its IC50 is > 2000 nM.

And the IC50 (NCI-H1299)?
The IC50 was > 2000 nM.

What about the IC50 (NCI-H23) of the same compound?
Its IC50 is > 2000 nM.

And the IC50 (BB65-RCC)?
Its IC50 is > 2000 nM.

What about the IC50 (TK-10) of the same compound?
The IC50 was > 2000 nM.

What about the IC50 (NCI-H446) of the same compound?
Its IC50 is > 2000 nM.

And the IC50 (GT3TKB)?
Its IC50 is > 2000 nM.

And the IC50 (SNU1)?
The IC50 was > 2000 nM.

What about the IC50 (NB69) of the same compound?
The IC50 was > 2000 nM.

What about the IC50 (EM-2) of the same compound?
Its IC50 is > 2000 nM.

What about the IC50 (RCC10RGB) of the same compound?
The IC50 was > 2000 nM.

And the IC50 (L-363)?
The IC50 was > 2000 nM.

What about the IC50 (HOP-62) of the same compound?
Its IC50 is > 2000 nM.

And the IC50 (SBC-1)?
Its IC50 is > 2000 nM.

And the IC50 (SK-N-DZ)?
Its IC50 is > 2000 nM.

And the IC50 (C8166)?
Its IC50 is > 2000 nM.

What about the IC50 (NOS-1) of the same compound?
Its IC50 is > 2000 nM.

And the IC50 (RPMI-8866)?
Its IC50 is > 2000 nM.

Source: ChEMBL document CHEMBL1201861, “Genomics of Drug Sensitity in Cancer screening data, Wellcome Trust Sanger Institute”
